The subject of one test is RAW γNO(−) cells. The test is described as follows: TNF-α and IFN-β production by mouse macrophages (Example 3). The format is cell-based. The conditions noted are these: best-fit values (Prism). The procedure:
After 5 hours, the supernatants were harvested and examined for mouse TNF-α and IFN-β using commercial or in-house developed capture ELISA assays, respectively.

Another test concerns RAW 264.7 γNO(−) cells. The test is described as follows: TNF-α and IFN-β assays in macrophages (Example 6). The format is cell-based, mouse. The conditions noted are these: 5.5 h. The procedure: To examine cytokine production, mouse macrophages (RAW γNO(−) cells) were exposed over a wide range of concentrations to compounds 21-24, E. coli 055:B5 LPS and prototypic E. coli bisphosphoryl lipid A (Zhang, J. Am. Chem. Soc. 2007, 129, 5200-5216). After 5.5 h, the supernatants were harvested and examined for mouse TNF-α and IFN-β using commercial or in-house developed capture ELISAs, respectively (FIG. 6). […] The reduced efficacy of compounds 21 and 23 is probably a beneficial property, because LPS can over-activate the innate immune system leading to symptoms of septic shock.
RAW 264.7 γNO(−) cells were plated on the day of the exposure assay as 2×10^5 cells/well in 96-well plates (Nunc) and incubated with different stimuli for 5.5 h in the presence or absence of polymyxin B. Culture supernatants were collected and stored frozen (−80° C.) until assayed for cytokine production. Concentrations of TNF-α were determined using the TNF-α DuoSet ELISA Development kit from R&D Systems. Concentrations of IFN-β were determined as follows. ELISA MaxiSorp plates were coated with rabbit polyclonal antibody against mouse IFN-β (PBL Biomedical Laboratories). IFN-β in standards and samples was allowed to bind to the immobilized antibody. Rat anti-mouse IFN-β antibody (USBiological) was then added, producing an antibody-antigen-antibody “sandwich”. Next, horseradish peroxidase (HRP) conjugated goat anti-rat IgG (H+L) antibody (Pierce) and a chromogenic substrate for HRP 3,3′,5,5′-tetramethylbenzidine (TMB; Pierce) were added. After the reaction was stopped, the absorbance was measured at 450 nm with wavelength correction set to 540 nm. Concentration-response data were analyzed using nonlinear least-squares curve fitting in Prism (GraphPad Software, Inc.). […] The Hill slope was set at 1 to be able to compare the EC50 values of the different inducers. All cytokine values are presented as the means±SD of triplicate measurements, with each experiment being repeated three times.

The subject of test [1] is GSTPVS(β-O-GlcNAc)SANM (BSA-MI-66 conjugate). More on the design: species or system BALB/c mice. The conditions noted are these: mouse, in vivo.

The source of these data is patent publication US20150299290A1, “IMMUNOGENIC VACCINE” (University of Georgia Research Foundation, Inc., priority 2010, published 2015).

Where a SMILES comes first, the peptide text is derived from it. The star is where a group is joined. Propyl(2R-PamO,3-PamO) = CCCCCCCCCCCCCCCC(=O)OC[C@H](C*)OC(=O)CCCCCCCCCCCCCCC; Palmitoyl = CCCCCCCCCCCCCCCC(=O)*

Regarding `CCCCCCCCCCCCCCCC(=O)OC[C@H](CSC[C@H](N)C(=O)N[C@@H](CO)C(=O)N[C@@H](CCCCN)C(=O)N[C@@H](CCCCN)C(=O)N[C@@H](CCCCN)C(=O)N[C@@H](CCCCN)C(=O)O)OC(=O)CCCCCCCCCCCCCCC` [Pam2CysSK4, S—[(R)-2,3-bis(palmitoyloxy)-propyl]-(R)-cysteinyl-(S)-seryl-(S)-lysine-(S)-lysine-(S)-lysine-(S)-lysyne] (H-C(Propyl(2R-PamO,3-PamO))SKKKK-OH; C-terminus assumed), the “Emax for TNF-α production” value in the test with RAW γNO(−) cells amounted to 631 pg/mL.

As to `CCCCCCCCCCCCCCCC(=O)N[C@@H](CSC[C@@H](COC(=O)CCCCCCCCCCCCCCC)OC(=O)CCCCCCCCCCCCCCC)C(=O)N[C@@H](CO)C(=O)N[C@@H](CCCCN)C(=O)N[C@@H](CCCCN)C(=O)N[C@@H](CCCCN)C(=O)N[C@@H](CCCCN)C(=O)O` [Pam3CysSK4, N-palmitoyl-S—[(R)-2,3-bis(palmitoyloxy)-propyl]-(R)-cysteinyl-(S)-seryl-(S)-lysine-(S)-lysine-(S)-lysine-(S)-lysyne] (Palmitoyl-C(Propyl(2R-PamO,3-PamO))SKKKK-OH), the “Emax for TNF-α production” value in the test with RAW γNO(−) cells was determined as 932 pg/mL. In addition, in the test on RAW 264.7 γNO(−) cells, the IFN-β secretion result is recorded as “none of the compounds induced the production of INF-β”; the TNF-α secretion entry was “induced secretion of TNF-α with similar efficacies and potencies”.

Regarding “Pam3CysSK4G-C-KLFAVWKITYKDT-G-GSTPVS(β-O-GluNAc)SANM [Compound 52]”, in test [1], the “IgG1 titer (anti-GSTPVS(β-O-GlcNAc)SANM)” value was 61,400, the “IgG2a titer (anti-GSTPVS(β-O-GlcNAc)SANM)” value is 33,200, the “IgG2b titer (anti-GSTPVS(β-O-GlcNAc)SANM)” value is listed as 12,500 and the “IgG3 titer (anti-GSTPVS(β-O-GlcNAc)SANM)” value was 69,400. In test [1], the “IgG total titer (anti-GSTPVS(β-O-GlcNAc)SANM)” value is listed as 76,500 and the “IgM titer (anti-GSTPVS(β-O-GlcNAc)SANM)” value is on record as 81,900.

As for “Pam3CysSK4G-C-KLFAVWKITYKDT-G-GSTPVS(β-S-GluNAc)SANM [Compound 53]”, in test [1], the “IgG1 titer (anti-GSTPVS(β-O-GlcNAc)SANM)” value is reported as 111,800, the “IgG2a titer (anti-GSTPVS(β-O-GlcNAc)SANM)” value is 55,600, the “IgG2b titer (anti-GSTPVS(β-O-GlcNAc)SANM)” value is reported as 21,300 and the “IgG3 titer (anti-GSTPVS(β-O-GlcNAc)SANM)” value is 111,700. Besides, in test [1], the “IgG total titer (anti-GSTPVS(β-O-GlcNAc)SANM)” value is given as 151,600 and the “IgM titer (anti-GSTPVS(β-O-GlcNAc)SANM)” value is reported as 21,900.

Regarding monophosphoryl lipid A [Compound 24], in the test with RAW 264.7 γNO(−) cells, the IFN-β secretion result was “stimulated the cells to produce TNF-α and INF-β”; the TNF-α secretion result is “stimulated the cells to produce TNF-α and INF-β”.
